Source: patent US20100196311A1, “METHODS AND COMPOSITIONS CONTAINING mTOR INHIBITORS FOR ENHANCING IMMUNE RESPONSES” (priority 2009, published 2010)

What was measured:
[1] = system: Eomesodermin; test: Eomesodermin mRNA and protein expression in OT-I cells; format: cell-based, mouse
Experimental: FIG. 5. Inhibition of mTOR Promotes Persistent Eomes Expression and Phenotypic Markers of Memory in CD8+T Cells. (A and B) OT-I cells stimulated with Ag+B7.1 (±) IL-12 and rapamycin were evaluated for (A) mRNA for Eomes at the indicated time points by RT-PCR and (B) Eomes protein expression at 72 hr by ICS. *p<0.03. (C) OT-I cells stimulated with Ag+B7.1 (±) IL-12 and rapamycin were transduced with T-bet-ER retroviral vector (±) 4-HT (10 nM) and evaluated for Eomes protein expression at 96 hr. (D) OT-I cells stimulated with Ag+B7.1 (±) IL-12 and rapamycin were evaluated for CD62L, CD69, KLRG1, CD127, and CD122 expression at 72 hr. (E) Bcl-2 and Bcl-3 mRNA expression at the indicated time points. (F and G) OT-I cells stimulated with Ag+B7.1 (±) IL-12 and rapamycin for 72 hr were washed twice and rested for an additional 72 hr in the presence of (F) IL-7 (10 ng/ml), *p<0.02, and (G) IL-15 (10 ng/ml). *p<0.02 and percent (%) cell recovery was calculated at 144 hr. […]
The closely related transcription factors T-bet and Eomesodermin are inversely regulated in effector and memory CD8^+T cells. To determine whether mTOR inhibition, which curtailed T-bet expression, led to induction of Eomesodermin, we systematically analyzed Eomesodermin mRNA expression in OT-I cells. […] We also determined whether IFN-α could also regulate mTOR activity and T-bet expression in OT-I cells.

[2] = biological target: T1, mTOR (Mus musculus, UniProt P26883+Q9JLN9); test: mTOR activity (mTOR, S6K and S6 phosphorylation by ICS) in stimulated OT-I cells; format: cell-based
T1 construct: endogenous in cells; host or cells: naive OT-I CD8+ T cells (TCR transgenic Rag2-/- mice) stimulated with Ag+B7.1 +/- IL-12
Experimental: FIG. 1. […] (A and B) OT-I cells stimulated with BOK (Ag+B7.1) (±) IL-12 were evaluated for (A) IFN-γ by ICS and (B) cytolytic activity (primary, 72 hr poststimulation; secondary, 24 hr postsecondary stimulation); ***p<0.0002. (C-E) OT-I cells stimulated with antigen (Ag) (the antigen is a peptide consisting of Ser Ile Ile followed by Asn Phe Glu which are followed by Lys and Lue (OVAp), used at 10 nM) plus B7.1 (100 μg/ml)(Ag+B7.1)(±) IL-12 (2 ng/ml) were evaluated by ICS at the indicated time points for (C) phosphorylated mTOR, (D) phosphorylated S6K, and (E) phosphorylated ribosomal S6. For mTOR inhibition, rapamycin (20 ng/ml) was added 30 min prior to addition of antigen, cytokine Data are representative of at least three independent experiments with similar outcomes. (Data are presented as mean±SEM.)
Stimulation of OT-1 Cells. Naive OT-I cells were stimulated with latex microspheres expressing H-2K^b/ovalbumin antigen and B7.1 according to known techniques. Naive OT-II cells were stimulated with anti-CD3-/anti-CD28-coated latex beads. In some experiments, the cell line derived from embryonic fibroblasts, namely, BOK (MEC.B7.SigOVA: expressing H-2K^b, OVAp and B7.1, were used as antigen-presenting cells to stimulate naive OT-I cells according to known techniques.
Although the kinase mTOR has been implicated as an integrator of various extracellular signals and a sensor for internal energy levels for determination of cell fate, the role for mTOR in integrating instructions that program naive CD8^+ T cells for type I effector differentiation is unclear. First, we tested the ability of Ag and B7.1 (Ag+B7.1) in the presence or absence of IL-12 to activate mTOR in OT-I cells at various time points after stimulation. Stimulation of naive OT-I cells with Ag+B7.1 induced mTOR phosphorylation (activation) by 2 hr, which was maximal at 12 hr and barely detectable by 48 hr (FIG. 1C). Remarkably, IL-12 addition enhanced Ag+B7.1-induced mTOR phosphorylation at 2 hr, which was maintained at 48 hr after stimulation (FIG. 1C). […] To verify that the induction of mTOR phosphorylation also led to its kinase activity, we monitored the kinetics of p70 S6K phosphorylation (Ser 371), a direct target of mTOR kinase activity. Although both Ag+B7.1 and Ag+B7.1 plus IL-12 induced similar amounts of S6K phosphorylation at 12 hr (maximal), the presence of IL-12 was able to sustain the S6K phosphorylation up to 48 hr (FIG. 10), in correlation with mTOR phosphorylation (FIG. 1C). […] The Ag+B7.1±IL-12 stimulation-induced S6K and S6 phosphorylation in OT-I cells was blocked by rapamycin (specific inhibitor of mTOR complex-1) (FIGS. 1D and 1E), thus confirming the ability of instructions to activate mTOR and its kinase activity in OT-I cells. […]

[3] = IFN-α, Ag+B7.1-stimulated OT-I cells

## IFN-α
[1]; [3]
  Eomesodermin expression: increases
[2]; [3]
  mTOR activity: unable to enhance

B1: IL-12: interleukin-12, cytokine (signal 3) (protein, UniProt P43431 23-215; P43432 23-335, looked up)
Interleukin-12 subunit alpha: RVIPVSGPARCLSQSRNLLKTTDDMVKTAREKLKHYSCTAEDIDHEDITRDQTSTLKTCLPLELHKNESCLATRETSSTTRGSCLPPQKTSLMMTLCLGSIYEDLKMYQTEFQAINAALQNHNHQQIILDKGMLVAIDELMQSLNHNGETLRQKPPVGEADPYRVKMKLCILLHAFSTRVVTINRVMGYLSSA
Interleukin-12 subunit beta: MWELEKDVYVVEVDWTPDAPGETVNLTCDTPEEDDITWTSDQRHGVIGSGKTLTITVKEFLDAGQYTCHKGGETLSHSHLLLHKKENGIWSTEILKNFKNKTFLKCEAPNYSGRFTCSWLVQRNMDLKFNIKSSSSSPDSRAVTCGMASLSAEKVTLDQRDYEKYSVSCQEDVTCPTAEETLPIELALEARQQNKYENYSTSFFIRDIIKPDPPKNLQMKPLKNSQVEVSWEYPDSWSTPHSYFSLKFFVRIQRKKEKMKETEEGCNQKGAFLVEKTSTEVQCKGGNVCVQAQDRYYNSSCSKWACVPCRVRS
[1]; IL-12 addition to Ag+B7.1 stimulation
  Eomesodermin expression: reduced
[2]; IL-12 (2 ng/ml) added to Ag+B7.1 stimulation, 2-48 hr
  mTOR phosphorylation: enhances and sustains
